Source: patent US7183320B2, “Benzoylsulfonamides and sulfonylbenzamidines for use as antitumour agents” (Eli Lilly and Company, priority 2002, dated 2007)

System: HCT116 colon carcinoma cells
Assay: HCT116 colon carcinoma cell growth inhibition (WST-1, 72 hr)
Format: cell-based, human
Conditions: 72 hr exposure
Method: HCT116 Colon Carcinoma Cell Growth Inhibition
HCT116 colon carcinoma cells were grown monolayer culture in RPMI 1640 medium supplemented with 10% fetal bovine serum and 1% penicillin-streptomycin (GibcoBRL, Grand Island, N.Y.). HCT116 cells in exponential growth phase were exposed to various concentrations of the test compounds at 37° C. for 72 hr in 5% carbon dioxide/air. After exposure to the agent, the cells were washed with 0.9% phosphate buffered saline. Growth inhibition was determined using WST-1 cell proliferation reagent as described above. The results are expressed as the growth fraction of treated cells compared with control cultures. Representative compounds of the present invention were tested for efficacy against the human colon HCT116 tumor cells.

IC50 [µM]	Structure (SMILES)
10.1	COC(=O)c1ccc(S(=O)(=O)NC(=O)c2ccc(Cl)cc2Br)cc1 [Example 30, N-[2-bromo-4-chlorobenzoyl]-4-methyoxycarbonyl-phenylsulfonamide]

Same assay, conditions: Homo sapiens, HCT-116, 72 hr exposure

IC50 [µM]	Structure (SMILES)
11.2	O=C(NS(=O)(=O)c1ccc(F)c(F)c1)c1ccc(C(F)(F)F)cc1C(F)(F)F [Example 53, N-[2,4-bis-trifluoromethylbenzoyl]-3,4-difluorophenyl-sulfonamide]
2.8	O=C(NS(=O)(=O)c1ccc(Cl)cc1)c1ccc(Br)cc1Cl [Example 112, N-[2-chloro-4-bromobenzoyl]-4-chlorophenylsulfonamide]
3.8	O=C(NS(=O)(=O)c1ccc(F)cc1)c1ccc(Br)cc1Cl [Example 16, N-[2-chloro-4-bromobenzoyl]-4-fluorophenylsulfonamide]
4.3	CS(=O)(=O)Oc1ccc(S(=O)(=O)NC(=O)c2ccc(Cl)cc2Cl)cc1 [Example 95, N-[2,4-dichlorobenzoyl]-4-methylsulfonyloxyphenyl-sulfonamide]
18.1	Cc1cc(Cl)ccc1C(=O)NS(=O)(=O)c1ccc(Cl)cc1 [Example 93, N-[2-methyl-4-chlorobenzoyl]-4-chlorophenylsulfonamide]
28.4	Cc1cc(Br)ccc1C(=O)NS(=O)(=O)c1ccc(I)cc1 [Example 36, N-[2-methyl-4-bromobenzoyl]-4-iodophenylsulfonamide]
10.4	O=C(NS(=O)(=O)c1ccc(Br)cc1)c1ccc([N+](=O)[O-])cc1Cl [Example 15, N-[2-chloro-4-nitrobenzoyl]-4-bromophenylsulfonamide]
6.6	Cc1cc(Cl)ccc1C(=O)NS(=O)(=O)c1ccccc1 [Example 60, N-[2-methyl-4-chlorobenzoyl]-phenylsulfonamide]
6.1	O=C(NS(=O)(=O)c1cccc(F)c1)c1ccc(Cl)cc1Cl [Example 26, N-[2,4-dichlorobenzoyl]-3-fluorophenylsulfonamide]
5.2	Cc1ccc(S(=O)(=O)NC(=O)c2ccc(C)cc2C(F)(F)F)cc1 [Example 79, N-[2-trifluoromethyl-4-methylbenzoyl]-4-methylphenyl-sulfonamide]
20.7	Cc1ccc(S(=O)(=O)NC(=O)c2ccc(Cl)cc2C)cc1Cl [Example 45, N-[2-methyl-4-chlorobenzoyl]-3-chloro-4-methylphenylsulfonamide]
4.8	CC(C)(C)c1ccc(S(=O)(=O)NC(=O)c2ccc(Cl)cc2Cl)cc1 [Example 88, N-[2,4-dichlorobenzoyl]-4-tert-butylphenylsulfonamide]
26.7	Cc1cc(Cl)ccc1C(=O)NS(=O)(=O)c1ccc(OC(F)(F)F)cc1 [Example 51, N-[2-methyl-4-chlorobenzoyl]-4-trifluoromethoxy-phenylsulfonamide]
4	O=C(NS(=O)(=O)c1ccc(Cl)cc1)c1ccc(Br)cc1Br [Example 6, N-[2,4-dibromobenzoyl]-4-chlorophenylsulfonamide]
9.3	COc1ccc(S(=O)(=O)NC(=O)c2ccc(Br)cc2Cl)cc1 [Example 18, N-[2-chloro-4-bromobenzoyl]-4-methoxyphenylsulfonamide]
2.4	COc1ccc(S(=O)(=O)NC(=O)c2ccc([N+](=O)[O-])cc2Cl)cc1 [Example 20, N-[2-chloro-4-nitrobenzoyl]-4-methoxyphenylsulfonamide]
15.5	Cc1cccc(S(=O)(=O)NC(=O)c2ccc(Br)cc2C)c1 [Example 37, N-[2-methyl-4-bromobenzoyl]-3-methylphenylsulfonamide]
14.2	CCSc1ccc(S(=O)(=O)NC(=O)c2ccc(Br)cc2C)cc1 [Example 61, N-[2-methyl-4-bromobenzoyl]-4-ethylthiophenyl-sulfonamide]
4.5	Cc1cc(Cl)ccc1C(=O)NS(=O)(=O)c1cccc(Br)c1 [Example 90, N-[2-methyl-4-chlorobenzoyl]-3-bromophenylsulfonamide]
2.5	COc1ccc(S(=O)(=O)NC(=O)c2ccc(Cl)cc2Cl)cc1 [Example 3, N-[2,4-dichlorobenzoyl]-4-methoxyphenylsulfonamide]
5	Cc1cc(Cl)ccc1C(=O)NS(=O)(=O)c1ccc(F)c(F)c1 [Example 57, N-[2-methyl-4-chlorobenzoyl]-3,4-difluorophenyl-sulfonamide]
18.2	CC(C)c1ccc(S(=O)(=O)NC(=O)c2ccc(Br)cc2Cl)cc1 [Example 64, N-[2-chloro-4-bromobenzoyl]-4-isopropylphenyl-sulfonamide]
19.3	CCSc1ccc(S(=O)(=O)NC(=O)c2ccc(Cl)cc2Cl)cc1 [Example 62, N-[2,4-dichlorobenzoyl]-4-ethylthiophenyl-sulfonamide]
5.5	CSc1ccc(S(=O)(=O)NC(=O)c2ccc(Cl)cc2Cl)cc1 [Example 87, N-[2,4-dichlorobenzoyl]-4-methylthiophenylsulfonamide]
15.9	Cc1ccc(S(=O)(=O)NC(=O)c2ccc(Cl)cc2C)cc1 [Example 23, N-[2-methyl-4-chlorobenzoyl]-4-methylphenylsulfonamide]

IC50 [µM]	Structure (SMILES)
4.8	O=C(NS(=O)(=O)c1ccc(F)cc1)c1ccc(C(F)(F)F)cc1C(F)(F)F [Example 46, N-[2,4-bis-trifluoromethylbenzoyl]-4-fluorophenylsulfonamide]
3.6	O=C(NS(=O)(=O)c1ccc(Br)cc1)c1ccc(Cl)cc1Cl [Example 94, N-[2,4-dichlorobenzoyl]-4-bromophenylsulfonamide]
9.6	O=C(NS(=O)(=O)c1cccc(C(F)(F)F)c1)c1ccc(Cl)cc1Cl [Example 25, N-[2,4-dichlorobenzoyl]-3-trifluoromethyl-phenylsulfonamide]
14.7	O=C(NS(=O)(=O)c1ccc(Br)cc1)c1ccc(C(F)(F)F)cc1C(F)(F)F [Example 49, N-[2,4-bis-trifluoromethylbenzoyl]-4-bromophenylsulfonamide]
4.6	Cc1cc(Cl)ccc1C(=O)NS(=O)(=O)c1cccc(C#N)c1 [Example 106, N-[2-methyl-4-chlorobenzoyl]-3-cyanophenylsulfonamide]
16.9	CCc1ccc(S(=O)(=O)NC(=O)c2ccc(Cl)cc2C)cc1 [Example 70, N-[2-methyl-4-chlorobenzoyl]-4-ethylphenylsulfonamide]
9.2	Cc1cc(Br)ccc1C(=O)NS(=O)(=O)c1ccc(Br)cc1 [Example 100, N-[2-methyl-4-bromobenzoyl]-4-bromophenylsulfonamide]
24.5	O=C(NS(=O)(=O)c1ccc(-c2ccco2)cc1)c1ccc(Cl)cc1Cl [Example 121, N-[2,4-dichloro-benzoyl]-4-furan-2-yl-phenylsulfonamide]
13	CN(C)c1ccc(S(=O)(=O)NC(=O)c2ccc(Cl)cc2Cl)cc1 [Example 98, N-[2,4-dichlorobenzoyl]-4-dimethylaminophenyl-sulfonamide]
14.8	Cc1cc(Cl)ccc1C(=O)NS(=O)(=O)c1ccc(C(C)(C)C)cc1 [Example 105, N-[2-methyl-4-chlorobenzoyl]-4-tert-butylphenylsulfonamide]
4.8	Cc1ccc(S(=O)(=O)NC(=O)c2ccc(Cl)cc2Cl)cc1Cl [Example 89, N-[2,4-dichlorobenzoyl]-3-chloro-4-methylphenylsulfonamide]
22.2	Cc1cc(Cl)ccc1C(=O)NS(=O)(=O)c1ccc(Cl)c(Cl)c1 [Example 104, N-[2-methyl-4-chlorobenzoyl]-3,4-dichlorophenylsulfonamide]
3.8	CC(C)(C)c1ccc(S(=O)(=O)NC(=O)c2ccc(Br)cc2Br)cc1 [Example 5, N-[2,4-dibromobenzoyl]-4-tert-butylphenylsulfonamide]
16.8	Cc1cc(Cl)ccc1C(=O)NS(=O)(=O)c1ccc(I)cc1 [Example 56, N-[2-methyl-4-chlorobenzoyl]-4-iodophenylsulfonamide]
11.3	O=C(NS(=O)(=O)c1ccc(C(F)(F)F)cc1)c1ccc(Cl)cc1Cl [Example 81, N-[2,4-dichlorobenzoyl]-4-trifluoromethyl-phenylsulfonamide]
8.7	COc1ccc(S(=O)(=O)NC(=O)c2ccc(C(F)(F)F)cc2C(F)(F)F)cc1 [Example 47, N-[2,4-bis-trifluoromethylbenzoyl]-4-methoxyphenylsulfonamide]
40	O=C(NS(=O)(=O)c1ccc(Br)cc1)c1ccc(Br)cc1Cl [Example 14, N-[2-chloro-4-bromobenzoyl]-4-bromophenylsulfonamide]
12.3	COc1cccc(S(=O)(=O)NC(=O)c2ccc(Cl)cc2Cl)c1 [Example 80, N-[2,4-dichlorobenzoyl]-3-methoxyphenyl-sulfonamide]
17	Cc1cc(Br)ccc1C(=O)NS(=O)(=O)c1ccc(F)c(Cl)c1 [Example 35, N-[2-methyl-4-bromobenzoyl]-3-chloro-4-fluorophenylsulfonamide]
14.5	COc1ccc(S(=O)(=O)NC(=O)c2ccc(Cl)cc2C)cc1 [Example 41, N-[2-methyl-4-chlorobenzoyl]-4-methoxyphenylsulfonamide]
3.3	Cc1cc(Cl)ccc1C(=O)NS(=O)(=O)c1ccc(F)cc1 [Example 42, N-[2-methyl-4-chlorobenzoyl]-4-fluorophenylsulfonamide]
15.8	O=C(NS(=O)(=O)c1cccc(Cl)c1)c1ccc(Br)cc1Cl [Example 17, N-[2-chloro-4-bromobenzoyl]-3-chlorophenylsulfonamide]
13.9	O=C(NS(=O)(=O)c1ccc(I)cc1)c1ccc(Br)cc1Br [Example 38, N-[2,4-dibromobenzoyl]-4-iodophenylsulfonamide]
7.8	CC(C)(C)c1ccc(S(=O)(=O)NC(=O)c2ccc(Cl)cc2Br)cc1 [Example 33, N-[2-bromo-4-chlorobenzoyl]-4-tert-butylphenylsulfonamide]
